Laboratory results as given in US9855268B2, “Triazolo[4,5-d]pyrimidine derivatives” (Merck Patent GmbH, priority 2013, dated 2018).
pIC50: −log10 of the molar value.

What was measured:
GCN2 [1] = target: T1, GCN2 (Homo sapiens, UniProt Q9P2K8); assay: GCN2 enzyme assay (TR-FRET Lanthascreen, GFP-eIF2alpha phosphorylation); type: biochemical; settings: 10 μM ATP, 80 nM GFP-eIF2a, 30 nM GCN2
Method in brief: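 Phosphorylation of GFP-eIF2alpha (80 nM) by GCN2 run at room temperature with 10 μM ATP. After EDTA quench, product quantified by Lanthascreen TR-FRET (antibody–GFP complex, 340 nm excitation).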
Target sequence in this assay (Q9P2K8 whole entry, species assumed): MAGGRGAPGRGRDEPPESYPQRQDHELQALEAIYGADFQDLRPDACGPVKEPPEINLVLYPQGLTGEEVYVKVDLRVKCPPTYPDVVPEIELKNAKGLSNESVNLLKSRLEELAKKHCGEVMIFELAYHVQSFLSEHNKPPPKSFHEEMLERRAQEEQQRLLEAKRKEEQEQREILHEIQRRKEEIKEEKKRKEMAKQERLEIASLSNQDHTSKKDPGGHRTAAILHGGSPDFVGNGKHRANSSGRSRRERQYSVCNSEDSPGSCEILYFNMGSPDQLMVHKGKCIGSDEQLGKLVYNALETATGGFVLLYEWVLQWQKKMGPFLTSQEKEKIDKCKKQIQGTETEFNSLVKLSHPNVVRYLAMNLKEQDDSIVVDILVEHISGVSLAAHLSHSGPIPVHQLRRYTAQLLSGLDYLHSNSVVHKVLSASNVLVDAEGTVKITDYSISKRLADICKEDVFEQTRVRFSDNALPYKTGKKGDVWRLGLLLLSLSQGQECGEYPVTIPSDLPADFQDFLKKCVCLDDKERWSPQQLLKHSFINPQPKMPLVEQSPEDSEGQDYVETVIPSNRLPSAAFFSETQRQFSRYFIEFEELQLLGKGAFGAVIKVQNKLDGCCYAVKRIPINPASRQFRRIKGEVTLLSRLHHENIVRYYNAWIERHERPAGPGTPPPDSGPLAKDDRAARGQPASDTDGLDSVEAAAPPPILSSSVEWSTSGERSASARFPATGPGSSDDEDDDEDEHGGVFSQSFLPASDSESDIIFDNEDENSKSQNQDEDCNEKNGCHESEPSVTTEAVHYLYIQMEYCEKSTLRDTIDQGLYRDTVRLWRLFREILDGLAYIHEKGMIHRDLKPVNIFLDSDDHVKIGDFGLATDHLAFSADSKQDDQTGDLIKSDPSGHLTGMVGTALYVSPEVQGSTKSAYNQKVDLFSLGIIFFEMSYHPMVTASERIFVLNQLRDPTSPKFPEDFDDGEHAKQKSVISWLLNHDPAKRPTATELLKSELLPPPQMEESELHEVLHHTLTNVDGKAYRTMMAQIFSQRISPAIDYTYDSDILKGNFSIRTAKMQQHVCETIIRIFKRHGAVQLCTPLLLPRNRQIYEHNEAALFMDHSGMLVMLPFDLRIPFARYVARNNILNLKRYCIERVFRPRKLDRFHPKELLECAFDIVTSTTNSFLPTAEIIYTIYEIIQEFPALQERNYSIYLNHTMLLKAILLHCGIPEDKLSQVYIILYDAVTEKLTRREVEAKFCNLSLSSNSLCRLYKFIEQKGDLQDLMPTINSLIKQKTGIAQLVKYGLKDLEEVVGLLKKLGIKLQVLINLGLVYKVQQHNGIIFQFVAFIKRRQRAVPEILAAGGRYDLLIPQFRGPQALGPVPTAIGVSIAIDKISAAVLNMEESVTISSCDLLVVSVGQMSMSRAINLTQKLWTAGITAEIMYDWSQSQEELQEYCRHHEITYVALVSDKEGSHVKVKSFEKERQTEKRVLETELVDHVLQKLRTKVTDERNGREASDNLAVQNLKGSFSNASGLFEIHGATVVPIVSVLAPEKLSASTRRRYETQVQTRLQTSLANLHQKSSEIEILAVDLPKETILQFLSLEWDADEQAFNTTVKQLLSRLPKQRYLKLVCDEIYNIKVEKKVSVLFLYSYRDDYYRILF

GSK3α(h) = GSK3α(h) (Homo sapiens, UniProt P49840); assay: GSK3α radiometric kinase assay (33P-ATP, phospho GS2 peptide); type: biochemical; settings: read-out: IC50 GSK3α (enzyme assay)
Method in brief: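 Human GSK3α incubated with 20 μM phospho-GS2 peptide in 8 mM MOPS pH 7,0, 10 mM Mg-acetate and [γ-33P]ATP (concentration as required), started with MgATP. After 40 minutes at room temperature, stopped with phosphoric acid; 33P incorporation measured by filtermat spotting and scintillation counting.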

GSK3β(h) = GSK3β(h) (Homo sapiens, UniProt P49841); assay: GSK3β radiometric kinase assay (33P-ATP, phospho GS2 peptide); type: biochemical; settings: read-out: IC50 GSK3β (enzyme assay)
Experimental: GSK3β(h) is incubated with 8 mM MOPS pH 7,0, 0,2 mM EDTA, 20 μM
[…](p)EDEEE (phosphor GS2 peptide), 10 mM Mg-acetate and [gamma-33P-ATP](specific activity approx. 500 cpm/Pmol, concentration as required). The reaction is initiated by the addition of the MgATP. After incubation for 40 minutes at the room temperature, the Reaction is stopped by the addition of 3% phosphoric acid solution. 10 μL of reaction is then spotted onto a P30 filtermat and washed three times for 5 minutes in 50 mM phosphoric acid and once in methanol prior to drying and scintillation counting.

GCN2 [2] = target: T1, GCN2; assay: Cellular assay of GCN2 activity (phospho-eIF2alpha immunocytochemistry after tryptophanol); type: cell-based; set-up: endogenous in cells; host or cells: U2OS; settings: Human U2OS cells, 2 h compound, 600 μM tryptophanol 30 min
Method in brief: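 Readout in human U2OS cells: compound pretreatment 2 h, then tryptophanol (600 μM final) for 30 min to trigger GCN2 signalling. Fixed, permeabilised cells quantified by immunocytochemistry for phosphorylation, normalised to DMSO controls as % effect; IC50 from concentration-response.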
Target sequence in this assay (Q9P2K8 whole entry): as the sequence (Q9P2K8 whole entry, species assumed) above

Sequence of GSK3β(h) (P49841 whole entry): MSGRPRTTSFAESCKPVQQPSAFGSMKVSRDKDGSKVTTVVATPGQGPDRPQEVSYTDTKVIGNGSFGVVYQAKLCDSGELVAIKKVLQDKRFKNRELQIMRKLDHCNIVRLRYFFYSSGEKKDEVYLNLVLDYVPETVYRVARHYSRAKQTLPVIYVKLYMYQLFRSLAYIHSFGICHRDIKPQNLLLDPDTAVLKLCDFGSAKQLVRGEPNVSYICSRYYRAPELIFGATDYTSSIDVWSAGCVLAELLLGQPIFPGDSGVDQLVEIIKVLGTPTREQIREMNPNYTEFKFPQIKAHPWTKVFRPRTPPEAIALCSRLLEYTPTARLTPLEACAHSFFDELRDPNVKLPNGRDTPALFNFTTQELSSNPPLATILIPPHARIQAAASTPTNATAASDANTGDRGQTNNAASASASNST
Sequence of GSK3α(h) (P49840 whole entry): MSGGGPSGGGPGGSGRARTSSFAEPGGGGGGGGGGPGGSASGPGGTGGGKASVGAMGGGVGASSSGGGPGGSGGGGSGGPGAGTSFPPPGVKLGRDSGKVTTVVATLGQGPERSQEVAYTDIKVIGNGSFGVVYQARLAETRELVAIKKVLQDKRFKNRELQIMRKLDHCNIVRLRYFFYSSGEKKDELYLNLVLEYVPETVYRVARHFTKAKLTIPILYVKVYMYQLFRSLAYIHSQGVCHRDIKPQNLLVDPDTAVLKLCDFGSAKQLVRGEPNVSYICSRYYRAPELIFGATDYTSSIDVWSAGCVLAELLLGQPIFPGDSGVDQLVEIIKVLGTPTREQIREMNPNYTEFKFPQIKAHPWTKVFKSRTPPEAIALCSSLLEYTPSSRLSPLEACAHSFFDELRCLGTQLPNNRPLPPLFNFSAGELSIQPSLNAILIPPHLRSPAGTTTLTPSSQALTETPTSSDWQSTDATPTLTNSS

Row | pIC50 (GCN2 [1]) | pIC50 (GSK3α(h)) | pIC50 (GSK3β(h)) | pIC50 (GCN2 [2]) | Compound
1 | > 6.00 | > 6.00 | > 6.00 | 5.30 to 6.00 | CCOc1ccc(-n2nnc3cnc(N[C@@H]4CC[C@@H](O)C4)nc32)cc1 (relative stereo) [A207, (trans)-3-[3-(4-ethoxy-phenyl)-3H-[1,2,3]triazolo[4,5-d]pyrimidin-5-ylamino]-cyclopentanol]
2 | > 6.00 | > 6.00 | > 6.00 | 5.30 to 6.00 | COCCOc1ccc(-n2nnc3cnc(N[C@@H]4CC[C@@H](C(N)=O)C4)nc32)cc1 [A135, (1R,3R)-3-{3-[4-(2-methoxy-ethoxy)-phenyl]-3H-[1,2,3]triazolo[4,5-d]pyrimidin-5-ylamino}-cyclopentanecarboxylic acid amide]
3 | > 6.00 | > 6.00 | > 6.00 | 5.30 to 6.00 | CCOc1ccc(-n2nnc3cnc(N[C@@H]4CC[C@@H](C(N)=O)C4)nc32)cc1 [A150, (1R,3R)-3-[3-(4-ethoxy-phenyl)-3H-[1,2,3]triazolo[4,5-d]pyrimidin-5-ylamino]-cyclopentanecarboxylic acid amide]
4 | > 6.00 | > 6.00 | > 6.00 | 5.30 to 6.00 | NC(=O)[C@@H]1CC[C@@H](Nc2ncc3nnn(-c4ccc(OC[C@H](O)C(F)(F)F)cc4)c3n2)C1 [A151, (1R,3R)-3-{3-[4-((S)-3,3,3-trifluoro-2-hydroxy-propoxy)-phenyl]-3H-[1,2,3]triazolo[4,5-d]pyrimidin-5-ylamino}-cyclopentanecarboxylic acid amide]
5 | > 6.00 | > 6.00 | > 6.00 | 5.00 to 5.30 | NC(=O)[C@@H]1CC[C@@H](Nc2ncc3nnn(-c4ccc(OCCO)cc4)c3n2)C1 [A153, (1R,3R)-3-{3-[4-(2-hydroxy-ethoxy)-phenyl]-3H-[1,2,3]triazolo[4,5-d]pyrimidin-5-ylamino}-cyclopentanecarboxylic acid amide]
6 | > 6.00 | > 6.00 | > 6.00 | 5.30 to 6.00 | NC(=O)[C@@H]1CC[C@@H](Nc2ncc3nnn(-c4ccc(OC[C@@H](O)C(F)(F)F)cc4)c3n2)C1 [A155, (1R,3R)-3-{3-[4-((R)-3,3,3-trifluoro-2-hydroxy-propoxy)-phenyl]-3H-[1,2,3]triazolo[4,5-d]pyrimidin-5-ylamino}-cyclopentanecarboxylic acid amide]
7 | > 6.00 | > 6.00 | > 6.00 | 5.00 to 5.30 | CC(C)Oc1ccc(-n2nnc3cnc(N[C@@H]4CC[C@@H](C(N)=O)C4)nc32)cc1 [A164, (1R,3R)-3-[3-(4-isopropoxy-phenyl)-3H-[1,2,3]triazolo[4,5-d]pyrimidin-5-ylamino]-cyclopentanecarboxylic acid amide]

More lines, now with the values behind:

Row | Compound | pIC50 (GCN2 [1]) | pIC50 (GSK3α(h)) | pIC50 (GSK3β(h)) | pIC50 (GCN2 [2])
8 | CC(C)Oc1ccc(-n2nnc3cnc(N[C@@H]4CC[C@@H](O)C4)nc32)cc1 (relative stereo) [A210, (trans)-3-[3-(4-isopropoxy-phenyl)-3H-[1,2,3]triazolo[4,5-d]pyrimidin-5-ylamino]-cyclopentanol] | > 6.00 | > 6.00 | > 6.00 | 5.00 to 5.30
9 | Cn1cc(-c2ccc(-n3nnc4cnc(N[C@@H]5CC[C@H](N)C5)nc43)cc2)cn1 [A118, (1S,3R)-N3-{3-[4-(1-methyl-1H-pyrazol-4-yl)-phenyl]-3H-[1,2,3]triazolo[4,5-d]pyrimidin-5-yl}-cyclopentane-1,3-diamine] | > 6.00 | > 6.00 | > 6.00 | 5.30 to 6.00
10 | COCCn1cc(-c2ccc(-n3nnc4cnc(N[C@@H]5CC[C@H](N)C5)nc43)cc2)cn1 [A121, (1S,3R)—N3-(3-{4-[1-(2-methoxy-ethyl)-1H-pyrazol-4-yl]-phenyl}-3H-[1,2,3]triazolo[4,5-d]pyrimidin-5-yl)-cyclopentane-1,3-diamine] | > 6.00 | > 6.00 | 5.30 to 6.00 | 5.30 to 6.00
11 | COc1ccc(-n2nnc3cnc(N[C@@H]4CC[C@H](CN)C4)nc32)cc1 [A122, ((1R,3S)-3-aminomethyl-cyclopentyl)-[3-(4-methoxy-phenyl)-3H-[1,2,3]triazolo[4,5-d]pyrimidin-5-yl]-amine] | > 6.00 | > 6.00 | 5.30 to 6.00 | 5.30 to 6.00
12 | Cc1ccc2cc(-n3nnc4cnc(N[C@@H]5CC[C@@H](N)C5)nc43)ccc2n1 [A124, (1R,3R)—N-[3-(2-methyl-quinolin-6-yl)-3H-[1,2,3]triazolo[4,5-d]pyrimidin-5-yl]-cyclopentane-1,3-diamine] | > 6.00 | > 6.00 | 5.30 to 6.00 | 5.30 to 6.00
13 | CCOCCn1cc(-c2ccc(-n3nnc4cnc(N[C@@H]5CC[C@@H](N)C5)nc43)cc2)cn1 [A125, (1R,3R)—N-(3-{4-[1-(2-3thoxy-ethyl)-1H-pyrazol-4-yl]-phenyl}-3H-[1,2,3]triazolo[4,5-d]pyrimidin-5-yl)-cyclopentane-1,3-diamine] | > 6.00 | > 6.00 | 5.30 to 6.00 | > 6.00
14 | Cc1nc2ccc(-n3nnc4cnc(N[C@@H]5CC[C@@H](C(N)=O)C5)nc43)cc2s1 [A147, (1R,3R)-3-[3-(2-methyl-benzothiazol-6-yl)-3H-[1,2,3]triazolo[4,5-d]pyrimidin-5-ylamino]-cyclopentanecarboxylic acid amide] | > 6.00 | > 6.00 | > 6.00 | 5.30 to 6.00
15 | COc1ccc(-n2nnc3cnc(N[C@@H]4CC[C@@H](C(N)=O)C4)nc32)cc1F [A152, (1R,3R)-3-[3-(3-fluoro-4-methoxy-phenyl)-3H-[1,2,3]triazolo[4,5-d]pyrimidin-5-ylamino]-cyclopentanecarboxylic acid amide] | > 6.00 | > 6.00 | > 6.00 | 5.30 to 6.00
16 | CCOc1ccc(-n2nnc3cnc(N[C@@H]4CC[C@@H](C(N)=O)C4)nc32)cc1F [A157, (1R,3R)-3-[3-(4-ethoxy-3-fluoro-phenyl)-3H-[1,2,3]triazolo[4,5-d]pyrimidin-5-ylamino]-cyclopentanecarboxylic acid amide] | > 6.00 | > 6.00 | > 6.00 | 5.30 to 6.00
17 | NC(=O)[C@@H]1CC[C@@H](Nc2ncc3nnn(-c4ccc(N5CCOCC5)c(F)c4)c3n2)C1 [A158, (1R,3R)-3-[3-(3-fluoro-4-morpholin-4-yl-phenyl)-3H-[1,2,3]triazolo[4,5-d]-pyrimidin-5-ylamino]-cyclopentanecarboxylic acid amide] | > 6.00 | > 6.00 | > 6.00 | 5.00 to 5.30
18 | COc1ccc(-n2nnc3cnc(N[C@@H]4CC[C@@H](C(N)=O)C4)nc32)cc1C [A162, (1R,3R)-3-[3-(4-methoxy-3-methyl-phenyl)-3H-[1,2,3]triazolo[4,5-d]pyrimidin-5-ylamino]-cyclopentanecarboxylic acid amide] | > 6.00 | > 6.00 | > 6.00 | 5.00 to 5.30
19 | Cc1cc2cc(-n3nnc4cnc(N[C@@H]5CC[C@@H](C(N)=O)C5)nc43)ccc2o1 [A180, (1R,3R)-3-[3-(2-methyl-benzofuran-5-yl)-3H-[1,2,3]triazolo[4,5-d]pyrimidin-5-ylamino]-cyclopentanecarboxylic acid amide] | > 6.00 | > 6.00 | > 6.00 | 5.30 to 6.00
20 | CCOCCOc1ccc2cc(-n3nnc4cnc(N[C@@H]5CC[C@@H](C(N)=O)C5)nc43)ccc2n1 [A182, (1R,3R)-3-{3-[2-(2-ethoxy-ethoxy)-quinolin-6-yl]-3H-[1,2,3]triazolo[4,5-d]-pyrimidin-5-ylamino}-cyclopentanecarboxylic acid amide] | > 6.00 | > 6.00 | > 6.00 | 5.30 to 6.00
21 | Cc1ncc2cc(-n3nnc4cnc(N[C@@H]5CC[C@@H](C(N)=O)C5)nc43)ccc2n1 [A184, (1R,3R)-3-[3-(2-methyl-quinazolin-6-yl)-3H-[1,2,3]triazolo[4,5-d]pyrimidin-5-ylamino]-cyclopentanecarboxylic acid amide] | > 6.00 | > 6.00 | > 6.00 | 5.30 to 6.00
22 | Cc1ccc2cc(-n3nnc4cnc(N[C@@H]5CC[C@@H](C(N)=O)C5)nc43)ccc2n1 [A187, (1R,3R)-3-[3-(2-methyl-quinolin-6-yl)-3H-[1,2,3]triazolo[4,5-d]-pyrimidin-5-ylamino]-cyclopentanecarboxylic acid amide] | > 6.00 | > 6.00 | > 6.00 | > 6.00
23 | Cc1ccc2cc(-n3nnc4cnc(N[C@H]5CC[C@H](C(N)=O)C5)nc43)ccc2n1 [A193, (1S,3S)-3-[3-(2-methyl-quinolin-6-yl)-3H-[1,2,3]triazolo[4,5-d]pyrimidin-5-ylamino]-cyclopentanecarboxylic acid amide] | > 6.00 | > 6.00 | > 6.00 | 5.30 to 6.00
